Substitutions are numbered along the chain they refer to.
Tests used:
Assay in all cases: Kinase panel (Eurofins)
Assay type in all cases: biochemical
Conditions in all cases: n = 2; for inhibition at 1 µM: at 1 μmol/L; for IC50: read-out: IC50 kinase inhibition
Fes(h) = target: T1, Fes(h) (Homo sapiens, UniProt P07332)
T1 construct: purchased Eurofins
Excerpt: (§1) These receptors have a methionine gatekeeper in their kinase domains, and are related to hyperglycemia in other clinical trials of EGFR TKI, such as Co-1686.

Flt3 (D835Y) (h) = target: T2, Flt3 (D835Y) (h) (Homo sapiens, UniProt P36888, D835Y)
T2 construct: purchased Eurofins
T2 sequence (P36888 27-993 D835Y): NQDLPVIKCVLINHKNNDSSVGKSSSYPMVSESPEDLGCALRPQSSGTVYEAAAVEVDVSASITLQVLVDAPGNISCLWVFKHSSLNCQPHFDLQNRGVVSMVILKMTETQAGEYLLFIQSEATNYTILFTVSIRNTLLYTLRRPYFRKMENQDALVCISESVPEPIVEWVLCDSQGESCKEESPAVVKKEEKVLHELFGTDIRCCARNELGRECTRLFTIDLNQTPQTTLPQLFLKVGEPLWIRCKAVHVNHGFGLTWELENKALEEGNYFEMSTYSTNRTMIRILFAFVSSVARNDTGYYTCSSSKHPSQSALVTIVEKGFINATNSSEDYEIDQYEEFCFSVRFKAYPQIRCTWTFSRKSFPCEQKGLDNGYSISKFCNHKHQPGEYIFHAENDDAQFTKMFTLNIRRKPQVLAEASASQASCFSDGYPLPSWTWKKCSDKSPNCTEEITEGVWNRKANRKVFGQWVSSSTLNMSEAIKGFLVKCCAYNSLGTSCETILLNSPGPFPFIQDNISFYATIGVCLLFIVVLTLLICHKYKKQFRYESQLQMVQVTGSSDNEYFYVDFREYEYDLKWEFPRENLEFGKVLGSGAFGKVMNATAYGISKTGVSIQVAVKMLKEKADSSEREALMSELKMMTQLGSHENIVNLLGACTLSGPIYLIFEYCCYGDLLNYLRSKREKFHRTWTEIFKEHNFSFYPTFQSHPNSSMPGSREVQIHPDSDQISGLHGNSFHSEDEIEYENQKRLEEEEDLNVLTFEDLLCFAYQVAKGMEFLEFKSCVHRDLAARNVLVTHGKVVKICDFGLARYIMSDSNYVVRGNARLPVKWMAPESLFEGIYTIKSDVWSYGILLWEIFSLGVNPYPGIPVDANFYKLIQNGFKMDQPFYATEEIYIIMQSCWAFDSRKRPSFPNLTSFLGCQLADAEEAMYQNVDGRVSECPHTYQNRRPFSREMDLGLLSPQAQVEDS
Excerpt: as §1

Flt3(h) = target: T3, Flt3(h) (Homo sapiens, UniProt P36888)
T3 construct: purchased Eurofins
T3 sequence (P36888 27-993): T2 sequence (P36888 27-993 D835Y) with Y809D
Excerpt: as §1

Itk(h) = target: T4, Itk(h) (Homo sapiens, UniProt Q08881)
T4 construct: purchased Eurofins
T4 sequence (Q08881 1-620): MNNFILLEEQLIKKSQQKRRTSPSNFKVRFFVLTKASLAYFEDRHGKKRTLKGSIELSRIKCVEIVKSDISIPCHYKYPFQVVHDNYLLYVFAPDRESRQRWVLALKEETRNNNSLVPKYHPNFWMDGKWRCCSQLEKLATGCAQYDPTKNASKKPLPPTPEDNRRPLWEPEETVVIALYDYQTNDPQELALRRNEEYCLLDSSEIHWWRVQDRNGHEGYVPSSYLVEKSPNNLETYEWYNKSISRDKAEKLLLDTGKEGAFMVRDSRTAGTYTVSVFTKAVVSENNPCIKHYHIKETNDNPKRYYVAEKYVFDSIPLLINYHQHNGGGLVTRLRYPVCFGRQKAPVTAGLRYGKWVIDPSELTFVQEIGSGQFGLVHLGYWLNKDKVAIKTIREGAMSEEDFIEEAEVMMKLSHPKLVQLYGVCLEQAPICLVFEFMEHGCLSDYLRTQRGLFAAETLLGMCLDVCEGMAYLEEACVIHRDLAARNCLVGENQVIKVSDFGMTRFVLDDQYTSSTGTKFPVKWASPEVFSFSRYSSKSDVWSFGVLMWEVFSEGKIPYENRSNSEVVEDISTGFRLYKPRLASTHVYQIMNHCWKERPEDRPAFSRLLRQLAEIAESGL
Excerpt: as §1

T1 sequence (P07332 whole entry): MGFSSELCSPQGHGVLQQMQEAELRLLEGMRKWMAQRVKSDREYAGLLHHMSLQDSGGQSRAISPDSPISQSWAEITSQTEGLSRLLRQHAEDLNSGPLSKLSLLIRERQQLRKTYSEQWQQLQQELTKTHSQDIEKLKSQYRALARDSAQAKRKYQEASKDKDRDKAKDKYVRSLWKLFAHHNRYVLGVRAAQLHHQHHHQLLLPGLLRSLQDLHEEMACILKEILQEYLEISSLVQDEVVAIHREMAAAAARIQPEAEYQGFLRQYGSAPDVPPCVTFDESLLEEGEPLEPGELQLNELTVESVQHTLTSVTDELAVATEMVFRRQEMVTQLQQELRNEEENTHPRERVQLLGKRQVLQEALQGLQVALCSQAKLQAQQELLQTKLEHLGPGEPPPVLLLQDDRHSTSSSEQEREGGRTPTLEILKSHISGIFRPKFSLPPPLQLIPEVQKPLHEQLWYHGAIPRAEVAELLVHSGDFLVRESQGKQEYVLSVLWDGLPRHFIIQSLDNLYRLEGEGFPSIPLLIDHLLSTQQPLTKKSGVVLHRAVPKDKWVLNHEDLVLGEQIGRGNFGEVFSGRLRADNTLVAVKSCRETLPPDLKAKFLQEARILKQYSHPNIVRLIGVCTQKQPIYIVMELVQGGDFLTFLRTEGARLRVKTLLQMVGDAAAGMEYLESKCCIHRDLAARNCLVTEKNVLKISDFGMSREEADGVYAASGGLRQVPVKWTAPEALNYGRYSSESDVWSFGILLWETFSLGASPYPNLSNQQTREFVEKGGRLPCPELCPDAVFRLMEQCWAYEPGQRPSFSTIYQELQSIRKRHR

| inhibition at 1 µM (Fes(h)) [%] | IC50 (Fes(h)) [µM] | inhibition at 1 µM (Flt3 (D835Y) (h)) [%] | IC50 (Flt3 (D835Y) (h)) [µM] | inhibition at 1 µM (Flt3(h)) [%] | IC50 (Flt3(h)) [µM] | inhibition at 1 µM (Itk(h)) [%] | IC50 (Itk(h)) [µM] | Structure (SMILES) |
| --- | --- | --- | --- | --- | --- | --- | --- | --- |
| 46 | 0.557 | 86 | 0.078 | 88 | 0.071 | 66 | 0.32 | C=CC(=O)Nc1cc(Nc2nccc(-c3c4n(c5ccccc35)CCCC4)n2)c(OC)cc1N(C)CCN(C)C [SH-1028] |
| 74 | 0.309 | 99 | 0.041 | 97 | 0.045 | 68 | 0.825 | C=CC(=O)Nc1cc(Nc2nccc(-c3c4n(c5ccccc35)CCCC4)n2)c(OC)cc1N(C)CCNC [Imp3] |
